How the values were obtained:
[1] = tested on: primary oval cells (liver progenitor cells); assay: Colony formation and proliferation of primary oval cell cultures on Sw-3T3 feeder fibroblasts; type: cell-based, mouse
Method: To identify the signals that regulate hepatocyte differentiation from liver progenitor cells, transcriptional profiling was performed on adult liver progenitors (oval cells) from mice fed a choline deficient, ethionine supplemented (CDE) diet (FIG. 1A; FIG. 5A). This CDE model is known in the art as a model of chronic liver disease. CDE is also a steatohepatitis model (NASH). Chronic CDE can also lead to hepatocellular carcinoma (HCC), thereby also serving as a model for HCC. To induce an oval cell response, 8-12 week-old female C57BL/6N mice (Charles River) were fed a choline deficient diet (20% Lard; Teklad TD.04523) supplemented with 0.15% (w/v) Ethionine in the drinking water (Akhurst et al., Hepatology 34(3):519 (2001)). Liver non-parenchymal cells were isolated according to the protocol of del Castillo (del Castillo et al., Am. J. Pathol., 172(5):1238 (2008)) with the addition of 0.04% Hyaluronidase (Sigma) to the in vitro dissociation step.
To elucidate the role of Notch signaling in liver regeneration, an in vitro culture system was developed. Cell cultures were established by culturing primary oval cells on Sw-3T3 fibroblasts (ATCC), arrested with Mitomycin C (Sigma), in High Glucose Dulbecco's Modified Eagle Medium (DMEM; Invitrogen) supplemented with 15% Fetal Calf Serum (Sigma), non-essential amino acids (Invitrogen), Glutamax (Invitrogen), and ITS (Invitrogen).

[2] = tested on: Notch2 intracellular domain (ICD); assay: Notch2 signaling in cultured oval cells (Western blot for γ-secretase cleaved Notch2 ICD; Hes1 expression); type: cell-based, mouse; conditions: FIG. 2H
Source text: The anti-activated Notch2 antibody (clone 40-2-7) was generated against the peptide VIMAKRKRKHGSLW, corresponding to amino acids 1697-1710 of the human Notch2 protein sequence (SEQ ID NO:73), coupled to KLH (YenZym Custom Antibodies, LLC). Splenocytes from a rabbit producing an antibody with the appropriate specificity were used to generate hybridomas (Epitomics, Inc.). Clone 40-2-7 was identified by screening the resulting rabbit monoclonal antibodies by immunoblotting and immunohistochemistry. This antibody recognizes both human (FIG. 7B, left panel) and mouse (FIG. 7B, right panel) active Notch2 at endogenous levels.
Progenitors cultured in the culture system maintained growth (FIG. 2A) and formed colonies consisting of small, tightly packed cells with a high nuclear-cytoplasmic ratio and a distinct raised edge (FIG. 2A, left panel). The cells within these colonies were uniformly EpCAM positive (FIG. 2A, right panel). […] Activated Notch2 was detected by Western blot analysis using a rabbit monoclonal antibody raised against the S3 cleaved form of the human Notch2 protein (FIG. 7B). […]
Notch2 signaling was active in cultured oval cells, as transcriptionally active Notch2 intracellular domain (ICD) could be detected using an antibody specific to the γ-secretase cleaved form of this receptor (FIG. 2H). […]

C[C@H](NC(=O)Cc1cc(F)cc(F)c1)C(=O)N[C@H](C(=O)OC(C)(C)C)c1ccccc1 [DAPT, N—[N-(3,5-difluorophenacetyl)-1-alanyl]-S-phenylglycine t-butyl ester]
progenitor cell proliferation ([1]; FIG. 2D): small increase | enhancement of colony formation ([1]; primary cultures treated with DAPT, FIG. 2B): approximately ten-fold | appearance of γ-secretase cleaved (active) form of Notch2 [2]: absent
